Data as given in paper PMC8288134, “Synthesis, potential antitumor activity, cell cycle analysis, and multitarget mechanisms of novel hydrazones incorporating a 4-methylsulfonylbenzene scaffold: a molecular docking study” (Journal of Enzyme Inhibition and Medicinal Chemistry, 2021).

Tests used:
NCI-H460 = test system: NCI-H460; design: method as in https://dtp.cancer.gov/dtpstandard/dwindex/index.jsp; details: reference drugs, ref https://dtp.cancer.gov/dtpstandard/dwindex/index.jsp; cited from earlier work
HOP-92 = experiment: NCI antitumor screen (SRB); format: cell-based; details: Homo sapiens, five concentrations 0.01-100 µM
[1] = test system: leukaemia tumour cell lines; experiment: NCI antitumor screen, subpanel; format: cell-based
[2] = test system: NSC lung cancer tumour cell lines; experiment: NCI antitumor screen, subpanel; format: cell-based
[3] = test system: colon cancer tumour cell lines; experiment: NCI antitumor screen, subpanel; format: cell-based
[4] = test system: CNS cancer tumour cell lines; experiment: NCI antitumor screen, subpanel; format: cell-based
[5] = test system: melanoma tumour cell lines; experiment: NCI antitumor screen, subpanel; format: cell-based
[6] = test system: ovarian cancer tumour cell lines; experiment: NCI antitumor screen, subpanel; format: cell-based
[7] = test system: renal cancer tumour cell lines; experiment: NCI antitumor screen, subpanel; format: cell-based
[8] = test system: prostate cancer tumour cell lines; experiment: NCI antitumor screen, subpanel; format: cell-based
[9] = test system: breast cancer tumour cell lines; experiment: NCI antitumor screen, subpanel; format: cell-based
[10] = Homo sapiens, five concentrations
[11] = Homo sapiens, read-out: LC50 (subpanel average)

## Cc1ccc(-c2cc(C(F)(F)F)nn2-c2ccc(S(N)(=O)=O)cc2)cc1 [Celecoxib, celecoxib]
NCI-H460
  GI50: 15.8 µM

## CCN(CC)c1ccc(/C=N/NC(=O)c2ccc(S(C)(=O)=O)cc2)c(O)c1 [Compound 20]
HOP-92
  GI50: 0.491 µM
[1]
  TGI (subpanel average): 83.5 µM
[1]; [10]
  GI50: 0.23 µM
[1]; [11]
  CC50: > 100 µM
[2]
  TGI (subpanel average): 65.0 µM
[2]; [10]
  GI50: 0.26 µM
[2]; [11]
  CC50: > 100 µM
[3]
  TGI (subpanel average): c (Compounds showed values ≥ 100 µM)
[3]; [10]
  GI50: 0.27 µM
[3]; [11]
  CC50: > 100 µM
[4]
  TGI (subpanel average): 71.7 µM
[4]; [10]
  GI50: 0.22 µM
[4]; [11]
  CC50: > 100 µM
[5]
  TGI (subpanel average): 45.6 µM
[5]; [10]
  GI50: 0.31 µM
[5]; [11]
  CC50: > 100 µM
[6]
  TGI (subpanel average): 70.0 µM
[6]; [10]
  GI50: 1.1 µM
[6]; [11]
  CC50: > 100 µM
[7]
  TGI (subpanel average): 80.3 µM
[7]; [10]
  GI50: 1.4 µM
[7]; [11]
  CC50: > 100 µM
[8]
  TGI (subpanel average): c (Compounds showed values ≥ 100 µM)
[8]; [10]
  GI50: 0.23 µM
[8]; [11]
  CC50: > 100 µM
[9]
  TGI (subpanel average): 69.5 µM
[9]; [10]
  GI50: 2.2 µM
[9]; [11]
  CC50: > 100 µM

## C#Cc1cccc(Nc2ncnc3cc(OCCOC)c(OCCOC)cc23)c1 [Erlotinib, erlotinib]
NCI-H460
  GI50: 6.31 µM

## COc1cc2ncnc(Nc3ccc(F)c(Cl)c3)c2cc1OCCCN1CCOCC1 [Gefitinib, gefitinib]
NCI-H460
  GI50: 3.16 µM

## CNC(=O)c1cc(Oc2ccc(NC(=O)Nc3ccc(Cl)c(C(F)(F)F)c3)cc2)ccn1 [Sorafenib, sorafenib]
NCI-H460
  GI50: 2.51 µM

## CS(=O)(=O)c1ccc(C(=O)Nc2ccc(Cl)c(-c3ccccn3)c2)c(Cl)c1 [Vismodegib, vismodegib]
NCI-H460
  GI50: 39.8 µM
